Patent publication US20180296537A1, “METHODS AND COMPOSITIONS FOR DIAGNOSING, TREATING, AND MONITORING TREATMENT OF SHANK3 DEFICIENCY ASSOCIATED DISORDERS” (Novartis AG, priority 2015, published 2018)
Entries after “also recorded” stand apart in the source; their conditions may differ.

Columns and labels:
CA1 pyramidal neurons = experiment: Dendritic spine density in hippocampal organotypic slice cultures; format: cell-based, mouse
Description: Wilde type (C57B1/6) mice were housed in a temperature-controlled room and maintained on a 12 hr light/dark cycle. Food and water were available ad libitum and experiments were carried out in accordance with the local authorization guidelines for the care and use of laboratory animals. Slice cultures were established according to the procedure described by Stoppini and colleagues (Galimberti et al., 2006; Stoppini et al., 1991). […] For organotypic slice cultures, brains of P6-P9 transgenic mice were dissected in cold MEM (GIBCO) medium, and hippocampal coronal sections of 400 μm were obtained with a tissue chopper (McIlwain). Slices were selected, placed on Millicell (Millipore, PICM03050) and cultured in 6-well dishes at 35° C. and 5% CO2 in the presence of 1 ml of medium. The entire slice isolation procedure took about 30 min. The culture medium was exchanged every third day. Treatments were performed in fresh culture medium for the indicated time periods.
Brain slices were transfected with plasmids encoding shCont, and shShank3 using helios gene gun system (Bio-Rad Laboratories, #165-2431) as previously described (Proenca et al., 2013). Subsequently, slices were fixed, stained, mounted, and analyzed following the protocols described below in the immunohistochemistry and microscopy paragraphs.
Slices were fixed for 10 minutes in 4% PFA, washed in PBS and blocked for 4 hr at room temperature in 0.3% Triton X-100 20% Horse Serum/PBS (blocking solution). GFP primary antibody was incubated for 24 hr at 4° C. in the blocking solution. Afterwards, slices were washed in PBS, incubated for 2 hr in 0.3% Triton X-100/PBS with Alexa Fluor® 488 Donkey anti-chicken secondary antibody (Life technologies). Finally, slices were washed in PBS, incubated 10 minutes with DAPI (Life technologies) and mounted on glass slides using ProLong mountant (Life technologies).
High resolution images were acquired on an upright Zeiss LSM700 confocal microscope, using a Plan-Neofluar 100×/1.3 oil immersion objective. For the analysis of dendritic spine density, confocal 3D stacks were acquired in CA1 region for each experiment. To quantify spine density, a stretch of approximately 30 μm was selected on secondary dendrites originating at the branch point from the primary dendrite. Only secondary dendrites were considered to reduce variability. Dendritic length was measured using the ImageJ plugin, Simple Neurite tracer, and spine density manually counted using the Cell Counter plugin.
The above findings implicate CLK2 overexpression as a specific anomaly that is causative for attenuated Akt activity in neurons deficient for Shank3. Consequently, inhibiting CLK2 activity or directly activating Akt would restore neuronal impairments associated with Shank3 loss of function. First, a small-molecule Akt-activator, SC79, was tested for its ability to restore Akt phosphorylation (FIG. 5A). SC79 binds directly to Akt to facilitate an ‘open’ conformation of the protein that is accessible to upstream activating kinases (eg. PDK1). This obviates the need for PtdIns(3,4,5)P3 (PIP3) production and recruitment of Akt to the plasma membrane (Rodgers, Cell Metab. 11, 23-34, 2010). […] Decreased principal neuron dendritic spine density has frequently been observed in Shank3 loss of function models (Durand et al., 2007, Nature Genetics 39: 25-27; Peca et al., 2011, Nature 472: 437-442; Verpelli et al., 2011, The Journal of Biological Chemistry 286: 34839-34850). Knock-down of Shank3 in hippocampal organotypic slice cultures, via biolistic transfection of shRNA vectors, faithfully recapitulated this phenotype in CA1 pyramidal neurons, whereby a two-fold reduction in apical dendrite spine density resulted (FIG. 6A). […]

Shank3^ΔC/ΔC mice [1] = experiment: Three-chamber social interaction task; format: in vivo, mouse
Description: The three-chamber social interaction task was performed in a three-chambered arena with transparent walls and retractable doorways to allow mice access to flanking chambers (FIG. 9F). During testing, the arena was placed in a lighted, sound-proof box with no side-biasing features. A video camera was mounted above for recording. The test comprised three phases with different stimuli placed in the side chambers successively between phases. Each stimulus (social or inanimate) was placed within a small wire cage for immobilization while test mice were allowed to freely investigate the stimuli. In Phase 1, identical inanimate objects (inverted ceramic cups with blue stripe) were placed in both side chambers. An intruder mouse (same strain) was introduced in one side chamber as the social stimulus in Phase 2. In Phase 3, a second intruder mouse was placed in the other side chamber (novel social stimulus). Each phase consisted of a 7.5 minute exploration period with 5 minutes in the home cage between phases. The test animal was placed in the center chamber to start the task. Animals were habituated to the arena 24 hours before testing during which time they were allowed to freely explore the entire arena, with empty wire cages in side chambers, for 10 minutes. Social interaction time for a given phase was scored by cumulative social/investigative behaviors, in particular sniffing and actively seeking a stimulus. Proximity to a stimulus without investigation was not counted. Preference index was calculated by subtracting interaction time with one stimulus from that of the other stimulus in the same testing phase then dividing this by the sum of interaction times for both stimuli and converting this to a percentage. Positive scores indicate a preference for the first stimulus in the equation. […]

Shank3^ΔC/ΔC mice [2] = experiment: Marble burying (avoidance behavior); format: in vivo, mouse; conditions: 30 minutes, 20 marbles; TG003 treatment
Description: To assess avoidance behavior by marble burying, 20 black marbles were evenly distributed in rows in a novel home cage on top of 5 cm of fresh bedding and mice were left undisturbed for 30 minutes in the cage. The number of marbles to at least ⅔ depth were then recorded.

Row | Structure (SMILES) | spine density (CA1 pyramidal neurons; Shank3 knock down neurons, 4 μg/ml SC79, 24 hr, DIV 14) | spine density (CA1 pyramidal neurons; control neurons, 4 μg/ml SC79, 24 hr, DIV 14) | spine density (CA1 pyramidal neurons; Shank3 knock down neurons, TG003 24 hours) | dendritic spine density (CA1 pyramidal neurons; knockdown of Shank3 with additional shRNAs, 24 h pre-treatment with TG003, fixed DIV 14) | total distance travelled (Shank3^ΔC/ΔC mice [1]; phase 1 or phase 2, TG003-treated mice) | preference for social interaction (S1 versus O1 interaction times) (Shank3^ΔC/ΔC mice [1]; phase 2, 30 mg/kg TG003 i.p. 6-8 hours before testing, 30 mg/kg) | social investigation after delay (Shank3^ΔC/ΔC mice [1]; phase 2, 72 hours after TG003 treatment) | time spent in S1 chamber (Shank3^ΔC/ΔC mice [1]; phase 2, TG003-treated Shank3^ΔC/ΔC mice) | avoidance behavior, marble burying (Shank3^ΔC/ΔC mice [2])
1 | CCOC(=O)C1=C(N)Oc2ccc(Cl)cc2C1C(C#N)C(=O)OCC (stereo not drawn) [SC79] | rescued the spine density impairment in Shank3 knock down neurons | without significantly affecting controls |  |  |  |  |  |  | 
2 | CCN1/C(=C/C(C)=O)Sc2ccc(OC)cc21 [TG003, (Z)-1-(3-ethyl-5-methoxy-2,3-dihydrobenzothiazol-2-ylidene)propan-2-one] |  |  | increased spine density in Shank3 knock down neurons to control levels | corrected | no change from wild type in total distance travelled | recovered normal preference for social interaction; also recorded: corrected | maintained 72 hours after treatment | restores the time spent in the Si chamber to wild type levels | refractory to treatment with TG003
